The source of these data is EP0304279B1, “Peptide determinant associated with immunity” (THE BOARD OF TRUSTEES OF THE LELAND STANFORD JUNIOR …, priority 1987, dated 1997).

Assay [1] relates to clone F1-28, a MBP-specific T-cell. Put plainly: Stimulation of MBP-specific T-cell clone by synthetic peptide (proliferation assay). In kind it is cell-based. To be noted: T-cell clone F1-28 recognizing the autoantigen myelin basic protein. From the text:
The determinant of myelin basic protein (MBP) P5-17 (Zamvil, et al., Nature, supra) contains a pattern P-S-Q-R-H-G-S-K-Y-L-A-T-A. Using the algorithm for the subject motif for predicting T-cell clones the epitope of the clone F1-28, a MBP-specific T-cell was isolated (Zamvil, et al., J. Exp. Med. (1985) 162: 2107), which clone recognizes the autoantigen myelin basic protein. A peptide corresponding to amino acids P35-47 containing two patterns GILD and RFFS was synthesized and shown to be stimulatory.
(§1) Proliferation Assay: Proliferative responses were determined as described previously (Zamvil et al., Nature (1985) 317:355). 1x10^4 T-cells were cultured with 5x10^5 X-irradiated (3,000 rad) PL/J splenic APC in 0.2 ml of culture media in 96 well flat-bottomed microtiter plates (Falcon, 3072). Peptides were added to culture giving the final concentrations indicated. At 48 hours incubation, each well was pulsed with 1 µCi ^3H-thymidine and harvested 16 hours later. The mean c.p.m. thymidine incorporation was calulated for triplicate cultures. Standard deviations from replicate cultures were within 10% mean value.

The next assay deals with mouse T-cells. Put plainly: Proliferation assay (3H-thymidine incorporation) of MHC-restricted T-cells with PL/J splenic APC. It is filed as cell-based. As for the experimental part:
as §1

The subject of assay [2] is clone F1-28, a MBP-specific T-cell. To be noted: Zamvil et al., Nature (1986) 324:258; cited from earlier work.

With “G-I-L-D-S-I-G-R-F-F-S-G-D-R-G-A-P (GILDSIGRFFSGDRGAP) [P35-47, peptide of myelin basic protein containing two patterns GILD and RFFS]”, the T-cell stimulation result (in assay [1]; in the assay on mouse T-cells (mouse T-cells restricted by MHC I-E(u)α E(u)β)) was “stimulatory” each time. As for “P89-101: P89-101 of the human myelin basic protein comprising the motif HFFK (PHLIRLFSRDAPG; UniProt P02686 89-101, looked up, fragment)”, in the assay with mouse T-cells (mouse T-cells restricted by I-A(s)α A(s)β), the T-cell stimulation entry is listed as “stimulatory”. For “L-D-S-I-G-R-F-F-S-G-D-R-G-A-P (LDSIGRFFSGDRGAP)”, in assay [2], the “stimulatory epitope defined with overlapping peptides” value was “stimulatory epitope”.
